Assay results taken from PMC6748860, “High-resolution crystal structures of a myxobacterial phytochrome at cryo and room temperatures” (Structural Dynamics, 2019).

Key:
SaBphP2 PCM [1] = target: T1, SaBphP2 PCM (Allostigmatella aurantiaca, UniProt Q09E27, H275T); assay: X-ray crystal structure ([…] Å, […] K); assay type: binding; conditions: covalent (thioether to Cys13); Pr state, dark; chromophore
T1 construct: gene STIAU_8420; photosensory core module PAS-GAF-PHY, residues 1-497, histidine kinase domain removed; homodimer; BV on Cys13

SaBphP2 PCM [2] = target: T2, SaBphP2 PCM (Allostigmatella aurantiaca, UniProt Q09E27); assay: X-ray crystal structure ([…] Å, […] K; SFX […] Å, […] K); assay type: binding; conditions: covalent (thioether to Cys13); Pr state, dark; chromophore
T2 construct: gene STIAU_8420; photosensory core module PAS-GAF-PHY, residues 1-497, histidine kinase domain removed; homodimer; BV on Cys13
T2 sequence (Q09E27 entry or part of it): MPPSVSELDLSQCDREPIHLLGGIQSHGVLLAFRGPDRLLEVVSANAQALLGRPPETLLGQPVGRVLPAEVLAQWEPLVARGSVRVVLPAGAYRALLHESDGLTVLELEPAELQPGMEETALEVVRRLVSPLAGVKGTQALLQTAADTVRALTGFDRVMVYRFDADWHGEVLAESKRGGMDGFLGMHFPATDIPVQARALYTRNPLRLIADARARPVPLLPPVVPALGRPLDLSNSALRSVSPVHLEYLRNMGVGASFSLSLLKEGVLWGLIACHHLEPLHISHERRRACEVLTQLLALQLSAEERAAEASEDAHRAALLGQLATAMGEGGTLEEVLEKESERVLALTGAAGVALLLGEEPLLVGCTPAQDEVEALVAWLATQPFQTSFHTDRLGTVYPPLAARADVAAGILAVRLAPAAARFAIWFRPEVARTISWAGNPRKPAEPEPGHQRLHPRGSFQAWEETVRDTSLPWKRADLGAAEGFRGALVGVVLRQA

T1 sequence (Q09E27 entry or part of it H275T): as the sequence (Q09E27 entry or part of it) above, with H275T counted along it

## C=CC1=C(C)C(=Cc2[nH]c(C=C3N=C(C=C4NC(=O)C(C)=C4C=C)C(C)=C3CCC(=O)O)c(CCC(=O)O)c2C)NC1=O [biliverdin]
SaBphP2 PCM [1]
  X-ray crystal structure (2.2 Å, 100 K): The cryostructure of the His275Thr mutant is essentially identical to that of the wild-type
SaBphP2 PCM [2]
  X-ray crystal structure (1.65 Å, 100 K; SFX 2.1 Å, 293 K): The BV chromophore is bound to Cys13 close to the N-terminus
